This experiment concerns MCF7. Kind of experiment: Activity at estrogen receptor expressed in human MCF7 cells assessed as increase in receptor-mediated transcription by ERE-luciferase reporter gene assay relative to estradiol. It counts as cell-based. More on the design: concentration or dose not given beside the values. For orientation: A reporter such as luciferase makes a cellular process visible.

Where only a bound is given, the exact number is not on record here.

With `Oc1ccc(-c2n[nH]c3c(O)cccc23)c(O)c1`, the Activity was under 50%. With `CCOC(=O)[C@@H]1[C@H](C(=O)OCC)[C@@H]2O[C@H]1C(c1ccc(O)cc1)=C2c1ccc(O)cc1` the figure was 10%.

Consider `Oc1ccc(-c2c(-c3ccccc3)nn3c(C(F)(F)F)cc(C(F)(F)F)nc23)cc1`, for which the Activity was determined as 10%. To `COC(=O)C1=C(C(=O)OC)[C@@H]2O[C@H]1C(c1ccc(O)cc1)=C2c1ccc(O)cc1` belongs 50%. For `Cn1c(N)nc2ncc(-c3ccccc3)cc21`, the Activity was under 50%.
